The values below come from patent US20240368145A1, “METHODS FOR TREATING CANCER” (IMMUNIC AG, priority 2021, published 2024).

In one experiment the test system is AR-FL protein. The experiment can be described thus: Androgen receptor protein expression (western blot) in 22Rv1: AR-FL. The experiment is classed as cell-based, human. Particulars: 22Rv1, 6 μM, 48 h; for AR-FL protein level: western blot quantification. The method, then:
After 48 h, cell were lysed using cell extraction buffer (Life Technologies #FNN0011) for western blot. […] The membrane is then incubation for 1 hour in blocking buffer (5% milk in 20 mM Tris, 150 mM NaCl, pH 7.5, 0.05% Tween 20 [TBS-T]). After this incubation, the primary antibody is added and incubated overnight at 4° C. After washing, the membrane was incubated with the secondary antibody for 1 h. Visualization of the bands was performed using the femto maximum sensitivity substrate reagent and the luminescence signal recorded with the Fusion FX7 (Vilber). For protein quantification, InageJ was used.
(Immunoblotting shows a protein as a band on a membrane.)

For a further experiment, the system named is KLK2 mRNA. The experiment can be described thus: Expression of AR target genes (qRT-PCR) in 22Rv1: KLK2. It is filed as cell-based. Particulars: 22Rv1, 1 μM; for mrna remaining at 1 µM: Homo sapiens, 48h, relative to vehicle control (DMSO). The method, then: (§1) The prostate cancer cell line 22Rv1 was treated for 48h with 1 μM Example compound 1, 1/1, 2/1, 2/2, 2/3, 2/4, 2/5, 2/6, 2/7, 2/8, 2/9 and 2/10 and reference compounds SR2211 and XY018. RNA was extracted using the RNA isolation kit XS (Macherey-Nagel) and following the manufacture's manual. RNA quantity was measured with the Nanodrop before reverse transcription using Superscript II (Invitrogen #100004925). For the quantitative real-time PCR with SYBR-Green (Qiagen #204074), the following primers were used:
(§2) qRT-PCR was performed using SYBR-Green (Qiagen #204074) reagents in a PCR cycler (Gorbett Research) Rotor Gene RG3000 with the following program: denaturation for 5′ at 95° C.; 40 cycles of 20″ at 95° C. and 15″ at 60° C.″ and at the end of the last cycle, the melting temperature of the products was determined by gradually increasing from 60° C. to 99° C. CT values from all samples were normalized to reference (housekeeping) genes using the mean CT value of the GAPDH and YWHAZ (reference genes). Next the values are put relative to the untreated control (vehicle/DMSO).
For orientation: Quantitative PCR measures a nucleic acid by following its amplification.

The test system of experiment [1] is prostate cancer cell line 22RV1. Description: Oncolead sulforhodamin B growth inhibition, 22RV1. The experiment is classed as cell-based. Particulars: Homo sapiens, sulforhodamin B assay, 72 and 120 h treatment, read-out: GI50 range 22RV1. The method, then:
(§3) Cell growth was assessed by measuring protein content using sulforhodamin B. Growth inhibition was calculated by (TCMD−T0)/TNCT72h−T0)*100% with TCMD is the tumor growth at 72 h with the respective compound concentration. To is the protein content of the cell line before treatment and TNCT72h is the tumor growth of the DMSO control.

For experiment [2], the system named is prostate cancer cell line LNCAP. The experiment can be described thus: Oncolead sulforhodamin B growth inhibition, LNCAP. Particulars: Homo sapiens, sulforhodamin B assay, 72 and 120 h treatment, read-out: GI50 range LNCAP. It is filed as cell-based. The method, then: as §3
Experiment [3] relates to prostate cancer cell line 22RV1, DU145, LNCAP, PC3 and VCaP. Description: Oncolead profiling in a panel of 5 prostate cancer cell lines (summary). It is filed as cell-based. Particulars: for inhibition at 30 µM: highest concentration (30 μM), VCaP cell line not included, read-out: average growth inhibition; for growth inhibition: in 4 of 5 prostate cancer cell lines. The method, then: as §3

The subject of a further experiment is AR-V7 mRNA. Description: Androgen receptor RNA level expression (qRT-PCR) in 22Rv1: AR-V7. It is filed as cell-based. Particulars: 22Rv1, 1 μM, 48 h; for mrna remaining at 1 µM: Homo sapiens, normalized to untreated control (vehicle/DMSO). The method, then: The prostate cancer cell line 22Rv1 was treated for 48 h with 1 μM Example compound 1, 1/1, 1/2, 2/1, 2/2, 2/3, 2/4, 2/5, 2/6, 2/7, 2/8, 2/9 and 2/10 and the reference compounds SR2211 and XY018 (Nat. Med. 2016; 22:488). RNA was extracted using the RNA isolation kit XS (Macherey-Nagel) and following the manufacture's manual. RNA quantity was measured with the Nanodrop before reverse transcription using Superscript II (Invitrogen #100004925). For the quantitative real-time PCR with SYBR-Green (Qiagen #204074), the following primers were used: AR forward-ACATCAAGGAACTCGATCGTATCATTGC and reverse-TTGGGCACTTGCACAGAGAT, AR-V7: forward-CCATCTTGTCGTCTTCGGAAATGTTATGAAGC and reverse-TTTGAATGAGGCAAGTCAGCCTTTCTT. The qRT-PCR proceeded as follows: denaturation for 5 min 95° C.; 40 cycles of “20 sec at 95° C. and 15 sec at 60° C.” and at the end of the last cycle, the melting temperature of the products was determined by gradually increasing it from 60° C. to 99° C. CT values from all samples were normalized to two different reference (housekeeping) genes using the mean CT value of the GAPDH and YWHAZ (reference genes). Next the values are normalized to the untreated control (vehicle/DMSO).

In a further experiment the test system is CAMKK2 mRNA. The experiment can be described thus: Expression of AR target genes (qRT-PCR) in 22Rv1: CAMKK2. It is filed as cell-based. Particulars: 22Rv1, 1 μM, 48h; relative to vehicle control (DMSO). The method, then: as §1, §2
Experiment [4] deals with prostate cancer cell line PC3. Description: Oncolead sulforhodamin B growth inhibition, PC3. It is filed as cell-based. Particulars: sulforhodamin B assay; 72 and 120 h treatment; read-out: GI50 range PC3. The method, then: as §3
For a further experiment, the system named is IL-17A. Description: Cytokine assay, human PBMC stimulated with PHA: IL-17A. Particulars: PHA-activated, 48 hours, read-out: IL-17A inhibition (IC50 range). The experiment is classed as cell-based. The method, then:
Peripheral blood mononuclear cells (PBMC) from healthy human donors were purified using Accuspin™ System-Histopaque-1077 (Sigma) according to the protocol recommended by the manufacturer. Purified PBMC were then washed twice with phosphate-buffered saline (PBS) and resuspended in RPMI1640 culture medium supplemented with 10% dialyzed heat inactivated fetal calf serum, 1.5 mM L-glutamine, 100 U penicillin/mL and […] streptomycin/mL (all from PAN Biotech, Aidenbach, Germany). For stimulation, PBMC were seeded at 1×10^5 cells/well, activated with 2 gg/mL phytohaemagglutinin (PHA, Sigma) and incubated with the test compounds for 48 hours. IL-17A, IL-17F and INFγ were then determined in the culture supernatant using a Luminex BioPlex system, following the manufacturer's instructions (BioRad, Munich, Germany). To determine the IC50, compounds were titrated semilogarithmically.
Cytokines were determined in the aforementioned culture supernatant using the following methods: IL-17A was measured using the human homodimer IL-17A ELISA Ready Set Go Kit from cBioscience (Frankfurt, Germany); IL-17F using the human IL-17F ELI-Pair from Holzel Diagnostica GmbH (K51n, Germany); and IFNγ using the OptEIA human IFN-g ELISA from BD Bioscience (Heidelberg, Germany), all following the manufacturer's instructions.

For experiment [5], the system named is prostate cancer cell line DU145. Description: Oncolead sulforhodamin B growth inhibition, DU145. The experiment is classed as cell-based. Particulars: Homo sapiens, DU-145; sulforhodamin B assay; 72 and 120 h treatment; read-out: GI50 range DU145. The method, then:
as §3

Experiment [6] concerns prostate cancer cell line VCaP. The experiment can be described thus: Oncolead sulforhodamin B growth inhibition, VCaP. Particulars: for GI50: Homo sapiens, VCaP, sulforhodamin B assay, 72 and 120 h treatment, read-out: GI50 range VCAP; for effect on growth of VCaP: highest dose (30 μM). The experiment is classed as cell-based. The method, then: as §3

SMILES strings stand for the structures.

As usually defined, the GI50 is the concentration that inhibits growth by half. The term inhibition denotes the drop in the measured response relative to a control, in per cent. The term IC50 denotes the point on the concentration scale where inhibition reaches its midpoint.

Regarding `CC(C)(O)CCn1ncc(-c2onc(-c3c(F)cccc3Cl)c2-c2ncccn2)c1C(F)(F)F` [2/8], the “AR-FL protein levels” value with AR-FL protein is listed as “strong reduction”. The same molecule had an AR-FL protein level in the experiment on AR-FL protein of 0.421. Moreover, in the experiment with KLK2 mRNA (48 h), the “KLK2 mRNA level expression” value is “strong inhibition”. Besides, the mrna remaining at 1 µM came to 60.8% in the experiment with KLK2 mRNA and 34.8% with AR-V7 mRNA. Also, the GI50 was less than 25 nM in [1]; 100 to 5000 nM in experiment [2]; less than 25 nM in [4]; less than 25 nM in [5]; no less than 5000 nM in experiment [6]. The inhibition at 30 µM in experiment [3] amounted to 80%. Besides, the “growth inhibition” value in [3] is recorded as “strong growth inhibition”. Moreover, the “AR-V7 mRNA expression” value in the experiment with AR-V7 mRNA is listed as “strong reduction”. In addition, the “CAMKK2 mRNA expression” value in the experiment with CAMKK2 mRNA came out at 1.149. For the same molecule, the IC50 with IL-17A was less than 25 nM. In addition, the “effect on growth of VCaP” value in experiment [6] was “No effect”.

Consider `COC(=O)c1c(-c2c(F)cccc2Cl)noc1-c1cnn(-c2cccc(Cl)c2)c1C(F)(F)F` [Example 1, Methyl 3-(2-chloro-6-fluorophenyl)-5-(1-(3-chlorophenyl)-5-(trifluoromethyl)-1H-pyrazol-4-yl)isoxazole-4-carboxylate], for which, in the experiment on AR-FL protein, the “AR-FL protein levels” value is reported as “strong reduction”. In the experiment on AR-FL protein, this molecule registered an AR-FL protein level of 0.474. Also, the mrna remaining at 1 µM in the experiment with KLK2 mRNA was 59.8%; in the experiment on AR-V7 mRNA, 37%. Also, the 50% growth inhibitory concentration (GI50) in experiment [1] was less than 25 nM; in [2] it was 25 to 100 nM; in [4], less than 25 nM; in experiment [5], less than 25 nM; in [6], no less than 5000 nM. Also, in experiment [3], the inhibition at 30 µM was found to be 80%. For the same molecule, the “growth inhibition” value in experiment [3] is on record as “strong growth inhibition”. The “AR-V7 mRNA expression” value with AR-V7 mRNA was “strong reduction”. In addition, in the experiment on CAMKK2 mRNA, the “CAMKK2 mRNA expression” value came out at 0.884. The IC50 in the experiment on IL-17A was less than 25 nM. Also, the “effect on growth of VCaP” value in [6] is listed as “No effect”.

Consider `Fc1cccc(Cl)c1-c1noc(-c2cnn(-c3cccc(Cl)c3)c2C(F)(F)F)c1-c1nccs1` [Example 1/1], for which, in the experiment with AR-FL protein, the “AR-FL protein levels” value is on record as “strong reduction”. The molecule also displayed an AR-FL protein level in the experiment on AR-FL protein of 0.482. In addition, the mrna remaining at 1 µM came to 74.2% with KLK2 mRNA and 39.5% with AR-V7 mRNA. Besides, the concentration for 50% growth inhibition (GI50) was less than 25 nM in experiment [1]; less than 25 nM in [2]; less than 25 nM in [4]; less than 25 nM in [5]; no less than 5000 nM in experiment [6]. Besides, the inhibition at 30 µM in [3] was determined as 80%. In addition, the “growth inhibition” value in experiment [3] is “strong growth inhibition”. Also, the “AR-V7 mRNA expression” value in the experiment on AR-V7 mRNA is on record as “strong reduction”. In addition, the “CAMKK2 mRNA expression” value with CAMKK2 mRNA is reported as 0.883. For the same molecule, in the experiment on IL-17A, the concentration for half-maximal inhibition (IC50) is less than 25 nM. Moreover, in experiment [6], the “effect on growth of VCaP” value was “No effect”.
